Assay results taken from patent US20060216820A1, “Use of retinoic esters of hyaluronic acid for the differentiation of totipotent stem cells” (SINTOFARM S.P.A., priority 2003, published 2006).

Legend:
[1] = tested on: human totipotent stem cells; conditions: totipotent stem cells (Xu et al. 2002); cited from earlier work
P19 cells = conditions: cited from earlier work
GTR1 stem cells [2] = experiment: In vitro nuclear run-off transcription in nuclei from treated GTR1 cells; type: cell-based, murine; conditions: 1 μM chelerithrine with retinoic esters of hyaluronic acid 0.75 mg/ml, 10 days; puromycin-selected cardiomyocytes
Description: Gene transcription studies. Gene transcription rate has been analyzed in nuclei isolated by an approach of “in vitro nuclear run-off transcription”, previously described (Ventura C., J Biol Chem. 1997; 272:6685-6692.; Ventura C. et al. J Biol. Chem. 1998; 273:13383-13386.). Briefly, nuclei have been resuspended in buffer containing 50 mmol/L Tris/HCl, pH 8.0, 5 mmol/L MgCl2, 0.1 mmol/L EDTA, 40% glycerol, 0.1 mmol/L dithiothreitol, 0.5 mmol/L phenylmethylsulfonylfluoride, 1 μmol/L leupeptin, and 10 mmol/L β-mercaptoethanol. 100 μl of 2× reaction buffer (10 mmol/L Tris/HCl, pH 7.5, 5 mmol/L MgCl2, 0.3 mol/L KCl, 5 mmol/L dithiothreitol, 1 mmol/L of ATP, GTP, and CTP), and 5 μl of [α-^32P]UTP (3000 Ci/mmol) have been added to the nuclear suspension (90 μl). Samples were then incubated at room temperature for 15 min. The reaction has been stopped by digesting the DNA in presence of RNase-free DNase. The nuclear RNA has been isolated as described in Ventura C et al. J Biol Chem. 1997; 272:6685-6692. Approximately 5×10^6 cpm of ^32P labeled nuclear RNA were hybridized for 12 hours at 55° C. in presence of cold (not radioactive) probes of antisense mRNA of GATA-4, Nkx-2.5 or prodynorphin, generated, as described above, in absence of radiolabeled ribonucleotides. […]

GTR1 stem cells [3] = experiment: RT-PCR detection of cardiospecific transcripts (MHC, MLC) in GTR1 cells; type: cell-based, murine; conditions: 1 μM chelerithrine with retinoic esters of hyaluronic acid 0.75 mg/ml, 10 days; puromycin-selected cardiomyocytes
Description: Analysis of gene expression. Total RNA has been extracted from stem cells as described by Ventura et al. (Ventura C et al. J Biol. Chem. 1997; 272: 6685-6692). The levels of specific mRNAs have been analyzed by “RNase protection”, using [^32P]CTP radiolabeled cRNA probes (antisense mRNA) specific for each transcript of interest, according to a previously described protocol (Ventura C et al. J Biol. Chem. 1997; 272:6685-6692). Briefly, fragments corresponding to the main exons of GATA-4 (292 bp), Nkx-2.5 (414 bp) and prodynorphin (424 bp) genes have been inserted in the vector pCRII-TOPO (Invitrdgen). Transcription of the vector linearized With ApaI, BamHI, or XbaI respectively generated sense strand mRNA of prodynorphin, GATA-4, or Nkx-2.5. Transcription in presence of [^32P]CTP of the plasmid linearized with BamHI produced the antisense mRNA strand of prodynorphin and Nkx-2.5, while transcription of the vector linearized with XbaI generated the antisense mRNA strand of GATA-4. In some experiments the analysis of mRNA expression has been performed by means of RT-PCR, as described in (Ventura C, Maioli M. Circ Res. 2000:87:189-194).
GTR1 stem cells were used in these studies. […]

Structure (SMILES) | percentage of totipotent stem cells undergoing cardiomyocyte differentiation [1] | cells that differentiate in embryonic cardiomyocytes (P19 cells; P19 cells in presence of DMSO) | overall efficiency of cardiogenic effect (P19 cells; pluripotent murine cells in vitro) | effect of chelerithrine on the ester-induced expression/transcription of cardiogenic genes (GATA-4, Nkx-2.5, prodynorphin) (GTR1 stem cells [2]) | effect of chelerithrine on the ester-induced expression of cardiospecific genes (MHC, MLC) (GTR1 stem cells [3])
C[S+](C)[O-] [DMSO, dimethylsulfoxide] | unable to produce a significant increase | 15-20% | rather low |  | 
COc1ccc2c(c[n+](C)c3c4cc5c(cc4ccc23)OCO5)c1OC [chelerithrine] |  |  |  | antagonized | antagonized
